In ChEMBL document CHEMBL1201862, “PubChem BioAssay data set” (2004):
The source made the active and inactive calls.

Key:
[1] = inhibitors of firefly luciferase expression or activity, dose response, H4 neuroglioma cells, luminescence (AID 1990); format: functional, cell-based
[2] = Luminescence Cell-Based Dose Response HTS to Identify Inhibitors of 5'UTR Stem-Loop Driven Prion Protein mRNA Translation in H4 Neuroglioblastoma Cells. [Related pubchem assays: 1827 (Project Summary), 1813 (Primary HTS)]; format: functional
[3] = inhibitors of SNCA 5'UTR-driven reporter translation, confirmation, H4 neuroglioma cells, luminescence (AID 1988); format: functional, cell-based
[4] = molecular target: T1, Kappa-type opioid receptor (Homo sapiens, UniProt P41145); format: functional
Beta-galactosidase = Beta-galactosidase (Escherichia coli, UniProt Q8VNN2); format: functional
[5] = molecular target: T1, Kappa-type opioid receptor; format: functional; remark: listed apart in the source
[6] = THP-1 cell cytotoxicity, dose response, cytotoxicity control for non-replicating M. tuberculosis project (AID 489025); format: functional
[7] = HepG2 cell cytotoxicity, dose response, cytotoxicity control for non-replicating M. tuberculosis project (AID 489018); format: functional; details: Mycobacterium tuberculosis
[8] = Vero E6 cell cytotoxicity, dose response, cytotoxicity control for non-replicating M. tuberculosis project, secondary assay (AID 492998); format: functional, VeroE6; details: Vero C1008
[9] = molecular target: T2, Heat shock factor protein 1 (Mus musculus, UniProt P38532); test: HSF1 potentiators in luciferase reporter cells, confirmation, cell-based, NIH3T3, luminescence, dose retest (AID 435004); format: functional;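 further: stress induced by proteasome inhibitor MG132 added 30 min after compound; luciferase reporter driven by HSF1 response element in NIH3T3 cells; actives raise luminescence as potentiators of the MG132 stress response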
T2 sequence (P38532 whole entry): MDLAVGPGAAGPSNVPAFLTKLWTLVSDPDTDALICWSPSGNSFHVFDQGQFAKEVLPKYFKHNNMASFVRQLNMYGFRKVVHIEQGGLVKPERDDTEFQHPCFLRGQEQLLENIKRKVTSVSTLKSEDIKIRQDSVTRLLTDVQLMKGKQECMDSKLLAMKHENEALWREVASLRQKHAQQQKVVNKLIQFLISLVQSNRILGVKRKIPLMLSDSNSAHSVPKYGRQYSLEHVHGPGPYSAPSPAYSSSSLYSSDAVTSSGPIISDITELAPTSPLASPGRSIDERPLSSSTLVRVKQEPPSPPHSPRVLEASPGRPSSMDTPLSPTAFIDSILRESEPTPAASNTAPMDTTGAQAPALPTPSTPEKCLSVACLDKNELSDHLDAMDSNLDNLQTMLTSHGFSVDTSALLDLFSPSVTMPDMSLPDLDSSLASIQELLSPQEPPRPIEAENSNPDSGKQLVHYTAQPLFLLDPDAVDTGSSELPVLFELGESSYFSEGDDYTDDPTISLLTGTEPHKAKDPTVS

cells = format: functional
CHO = test: cytotoxicity in TLR9-MyD88 CHO cells, dose response, cytotoxicity control for TLR9-MyD88 binding inhibitor project, cell-based, luminescence (AID 588339); format: functional, hamster; details: Cricetulus griseus;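 further: CHO cells stably coexpressing TLR9 and MyD88 fusions from primary screen; compound exposure lasted 48 hours before viability readout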
Beta Lactamase = Beta Lactamase (Pseudomonas aeruginosa, UniProt Q932Y6); test: beta-lactamase reporter inhibitor potency, dose response, artefact control for TLR9-MyD88 binding inhibitor project, BLA reporter cells, FRET fluorescence (AID 588341); format: cell-based;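 further: cell based assay in CHO-K1 cells stably expressing beta-lactamase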
Genome polyprotein = Genome polyprotein (Hepatitis C virus, UniProt Q2Q167); test: HCV core protein dimerization inhibitors, dose response, biochemical, TR-FRET (AID 2159); set-up: species or system Hepacivirus hominis;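 further: blocks dimerization of HCV core protein measured by TR-FRET between tagged core106 pairs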
[10] = molecular target: T3, Voltage-gated N-type calcium channel alpha-1B subunit/Amyloid beta A4 precursor protein-binding family A member 1 (Homo sapiens, UniProt Q00975+Q02410); format: protein assay
[11] = molecular target: T3, Voltage-gated N-type calcium channel alpha-1B subunit/Amyloid beta A4 precursor protein-binding family A member 1; format: protein assay; remark: listed apart in the source
[12] = molecular target: Induced myeloid leukemia cell differentiation protein Mcl-1 (Homo sapiens, UniProt Q07820); format: functional
SUMO E1/E2 = SUMO E1/E2 (Homo sapiens, UniProt P63279+Q9UBE0+Q9UBT2); test: SAR analysis of SUMOylation using HTRF in an in-Vitro dose response assay. [Related pubchem assays (depositor defined):AID2006, AID2011, AID2018, AID2069, AID2658]; format: functional
[13] = molecular target: T3, Voltage-gated N-type calcium channel alpha-1B subunit/Amyloid beta A4 precursor protein-binding family A member 1; test: disruptors of Mint-PDZ/N-type channel peptide interaction – biochemical, HTRF, set 2, SAR follow-up (AID 434980); format: functional
[14] = molecular target: T3, Voltage-gated N-type calcium channel alpha-1B subunit/Amyloid beta A4 precursor protein-binding family A member 1; test: disruptors of Mint-PDZ/N-type channel peptide interaction – biochemical, HTRF, SAR follow-up (AID 2489); format: functional
[15] = molecular target: T4, Small ubiquitin-related modifier 1 (Homo sapiens, UniProt P63165); test: inhibitors of SUMO1 peptide binding, dose response, biochemical, fluorescence polarization, uHTS hits (AID 624382); format: functional; details: read-out: IC50_Mean
[16] = molecular target: T4, Small ubiquitin-related modifier 1; test: inhibitors of SUMO1 partner interactions, dose response, biochemical, FRET (AID 624383); format: functional; details: read-out: IC50_Mean
Albumin = Albumin (Bos taurus, UniProt P02769); test: Counterscreen for inhibitors of T-cell receptor (TCR)-CD3 interaction: Fluorescence-based biochemical high throughput dose response assay to identify inhibitors of T-cell receptor (TCR)-CD3 interaction using a TAMRA-labeled BSA probe.; format: functional
BJ [17] = test: cytotoxicity toward BJ-TERT fibroblasts, dose response, cell-based, RAS-independent, luminescence (AID 1933); format: functional; details: Homo sapiens
BJ [18] = test: cells; format: functional, cell-based; details: Homo sapiens
J774.A1 = test: Confirmation of image-based Screening Assay for Inhibitors of Phagocytosis. [Related pubchem assays (depositor defined):AID1029, AID1643]; format: functional, cell-based; details: Mus musculus
BJ [19] = test: cytotoxicity toward BJ-TERT-LT-ST fibroblasts, dose response, cell-based, RAS-independent, luminescence (AID 1935); format: functional; details: Homo sapiens;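 further: BJ fibroblasts immortalized with TERT plus LT and ST oncogenes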
[20] = cytotoxicity toward DRD oncogenic fibroblasts, dose response, cell-based, non-viral oncogenic, luminescence (AID 1934); format: functional; details: Homo sapiens
[21] = molecular target: T5, Intestinal-type alkaline phosphatase (Homo sapiens, UniProt P09923); test: Dose Response confirmation of uHTS hits from a small molecule inhibitors of human intestinal alkaline phosphatase via a luminescent assay. [Related pubchem assays (depositor defined):AID2544, AID2574]; format: functional
[22] = molecular target: T5, Intestinal-type alkaline phosphatase; test: human intestinal alkaline phosphatase activators, dose response, biochemical, luminescence, uHTS hits (AID 463120); format: functional

T3 sequence (Q00975 whole entry): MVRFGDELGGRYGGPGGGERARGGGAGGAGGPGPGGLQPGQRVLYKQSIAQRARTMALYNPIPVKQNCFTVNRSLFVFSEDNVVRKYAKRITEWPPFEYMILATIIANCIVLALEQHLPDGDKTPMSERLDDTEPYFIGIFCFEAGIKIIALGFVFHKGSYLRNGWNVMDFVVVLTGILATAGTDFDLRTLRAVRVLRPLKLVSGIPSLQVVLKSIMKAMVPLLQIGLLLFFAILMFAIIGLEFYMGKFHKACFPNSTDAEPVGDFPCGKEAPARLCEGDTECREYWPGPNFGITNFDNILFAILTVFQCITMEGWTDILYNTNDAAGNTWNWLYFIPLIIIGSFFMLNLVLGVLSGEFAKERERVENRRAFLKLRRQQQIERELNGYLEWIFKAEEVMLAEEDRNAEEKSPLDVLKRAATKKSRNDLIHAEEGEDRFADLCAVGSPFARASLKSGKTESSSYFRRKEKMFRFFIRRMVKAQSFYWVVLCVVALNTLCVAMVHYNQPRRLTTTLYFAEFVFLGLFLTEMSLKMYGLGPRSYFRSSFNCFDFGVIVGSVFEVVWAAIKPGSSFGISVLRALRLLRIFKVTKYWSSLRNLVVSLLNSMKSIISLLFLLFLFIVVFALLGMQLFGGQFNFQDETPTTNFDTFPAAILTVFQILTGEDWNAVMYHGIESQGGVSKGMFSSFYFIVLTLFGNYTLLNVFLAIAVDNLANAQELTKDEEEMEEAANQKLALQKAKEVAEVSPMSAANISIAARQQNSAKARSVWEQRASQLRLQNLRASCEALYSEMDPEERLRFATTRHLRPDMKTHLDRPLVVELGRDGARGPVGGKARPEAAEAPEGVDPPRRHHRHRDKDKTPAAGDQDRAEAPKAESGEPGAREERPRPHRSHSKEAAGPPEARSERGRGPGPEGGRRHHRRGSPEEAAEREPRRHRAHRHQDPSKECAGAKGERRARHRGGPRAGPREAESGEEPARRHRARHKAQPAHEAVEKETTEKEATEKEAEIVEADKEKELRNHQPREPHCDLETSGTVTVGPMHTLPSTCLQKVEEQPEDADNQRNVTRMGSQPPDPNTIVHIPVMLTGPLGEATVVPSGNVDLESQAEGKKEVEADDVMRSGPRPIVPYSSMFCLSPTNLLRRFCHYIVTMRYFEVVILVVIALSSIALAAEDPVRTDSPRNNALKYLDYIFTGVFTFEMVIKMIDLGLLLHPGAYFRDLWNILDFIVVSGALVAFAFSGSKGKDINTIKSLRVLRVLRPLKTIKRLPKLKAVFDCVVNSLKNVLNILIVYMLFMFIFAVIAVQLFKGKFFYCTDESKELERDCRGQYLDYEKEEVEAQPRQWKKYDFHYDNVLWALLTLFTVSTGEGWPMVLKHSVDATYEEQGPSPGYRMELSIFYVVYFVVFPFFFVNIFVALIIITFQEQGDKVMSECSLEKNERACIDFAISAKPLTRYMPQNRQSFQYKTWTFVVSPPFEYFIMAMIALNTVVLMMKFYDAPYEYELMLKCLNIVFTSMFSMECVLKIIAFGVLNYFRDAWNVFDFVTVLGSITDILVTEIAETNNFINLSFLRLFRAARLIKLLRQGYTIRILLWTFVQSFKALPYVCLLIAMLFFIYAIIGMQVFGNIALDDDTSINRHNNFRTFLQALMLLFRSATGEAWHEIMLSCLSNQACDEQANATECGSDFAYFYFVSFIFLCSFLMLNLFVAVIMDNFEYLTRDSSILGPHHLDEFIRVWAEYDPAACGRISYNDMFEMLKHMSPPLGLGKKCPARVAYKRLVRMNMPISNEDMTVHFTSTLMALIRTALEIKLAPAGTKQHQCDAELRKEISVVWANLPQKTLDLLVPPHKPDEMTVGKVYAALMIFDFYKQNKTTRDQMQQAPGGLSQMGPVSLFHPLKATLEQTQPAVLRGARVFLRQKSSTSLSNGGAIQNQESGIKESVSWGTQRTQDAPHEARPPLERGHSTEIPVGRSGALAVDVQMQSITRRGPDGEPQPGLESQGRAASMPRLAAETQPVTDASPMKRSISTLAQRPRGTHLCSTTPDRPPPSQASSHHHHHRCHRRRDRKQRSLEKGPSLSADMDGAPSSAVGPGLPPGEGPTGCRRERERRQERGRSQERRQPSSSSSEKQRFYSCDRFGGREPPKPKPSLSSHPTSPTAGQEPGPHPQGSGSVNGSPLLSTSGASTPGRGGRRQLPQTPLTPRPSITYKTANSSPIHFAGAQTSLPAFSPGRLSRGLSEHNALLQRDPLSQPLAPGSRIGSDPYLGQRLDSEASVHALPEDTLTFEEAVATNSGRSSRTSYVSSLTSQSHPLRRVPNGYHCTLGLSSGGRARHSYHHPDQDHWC
T3 sequence (Q02410 whole entry): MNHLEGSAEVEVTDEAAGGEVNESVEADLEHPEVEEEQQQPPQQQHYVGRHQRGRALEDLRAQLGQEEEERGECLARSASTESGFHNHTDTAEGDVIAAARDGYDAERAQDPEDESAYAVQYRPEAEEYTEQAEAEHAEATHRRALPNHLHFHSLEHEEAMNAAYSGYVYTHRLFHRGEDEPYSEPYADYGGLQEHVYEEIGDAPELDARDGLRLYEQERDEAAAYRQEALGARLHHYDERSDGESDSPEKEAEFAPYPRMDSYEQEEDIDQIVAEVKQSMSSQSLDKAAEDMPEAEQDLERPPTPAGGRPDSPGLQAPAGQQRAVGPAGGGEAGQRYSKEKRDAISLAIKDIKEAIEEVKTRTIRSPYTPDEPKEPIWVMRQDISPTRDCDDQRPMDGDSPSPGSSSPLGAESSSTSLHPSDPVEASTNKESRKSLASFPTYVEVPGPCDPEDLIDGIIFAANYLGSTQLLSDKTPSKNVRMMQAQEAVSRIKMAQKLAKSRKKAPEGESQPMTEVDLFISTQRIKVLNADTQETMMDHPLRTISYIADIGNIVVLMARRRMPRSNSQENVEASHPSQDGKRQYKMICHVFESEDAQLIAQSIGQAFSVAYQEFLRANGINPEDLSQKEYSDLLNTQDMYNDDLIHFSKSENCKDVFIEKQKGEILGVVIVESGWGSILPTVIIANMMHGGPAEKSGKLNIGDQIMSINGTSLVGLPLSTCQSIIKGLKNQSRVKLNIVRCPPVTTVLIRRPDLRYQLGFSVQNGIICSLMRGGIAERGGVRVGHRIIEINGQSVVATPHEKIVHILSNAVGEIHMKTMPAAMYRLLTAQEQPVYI
T1 sequence (P41145 whole entry): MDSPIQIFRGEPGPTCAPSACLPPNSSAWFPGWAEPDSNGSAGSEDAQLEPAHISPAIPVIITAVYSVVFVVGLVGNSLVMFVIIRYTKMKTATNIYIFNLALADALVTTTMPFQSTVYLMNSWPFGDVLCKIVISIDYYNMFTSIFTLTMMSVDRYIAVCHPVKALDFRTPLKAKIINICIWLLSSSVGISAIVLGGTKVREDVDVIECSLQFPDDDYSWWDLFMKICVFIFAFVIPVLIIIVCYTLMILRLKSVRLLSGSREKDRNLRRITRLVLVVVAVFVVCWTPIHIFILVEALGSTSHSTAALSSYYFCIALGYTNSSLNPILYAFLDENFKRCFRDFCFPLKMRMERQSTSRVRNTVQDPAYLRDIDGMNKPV
T5 sequence (P09923 whole entry): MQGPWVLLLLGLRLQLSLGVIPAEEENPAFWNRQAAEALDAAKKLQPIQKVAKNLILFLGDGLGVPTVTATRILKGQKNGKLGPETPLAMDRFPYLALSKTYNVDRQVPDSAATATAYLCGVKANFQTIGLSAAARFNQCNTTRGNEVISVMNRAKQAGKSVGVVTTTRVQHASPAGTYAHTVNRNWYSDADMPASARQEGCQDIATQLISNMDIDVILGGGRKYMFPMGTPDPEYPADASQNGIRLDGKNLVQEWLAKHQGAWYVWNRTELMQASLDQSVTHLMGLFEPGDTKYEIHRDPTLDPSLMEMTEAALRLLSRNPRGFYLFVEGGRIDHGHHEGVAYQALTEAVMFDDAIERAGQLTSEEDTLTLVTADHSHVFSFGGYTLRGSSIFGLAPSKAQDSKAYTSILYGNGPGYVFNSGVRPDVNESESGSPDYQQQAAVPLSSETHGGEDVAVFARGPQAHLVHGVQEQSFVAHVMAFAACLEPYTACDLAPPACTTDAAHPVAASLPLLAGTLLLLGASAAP
T4 sequence (P63165 whole entry): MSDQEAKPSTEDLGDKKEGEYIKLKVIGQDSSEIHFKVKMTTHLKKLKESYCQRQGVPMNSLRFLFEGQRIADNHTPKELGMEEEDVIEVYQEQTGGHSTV
Sequence of Beta Lactamase (Q932Y6 whole entry): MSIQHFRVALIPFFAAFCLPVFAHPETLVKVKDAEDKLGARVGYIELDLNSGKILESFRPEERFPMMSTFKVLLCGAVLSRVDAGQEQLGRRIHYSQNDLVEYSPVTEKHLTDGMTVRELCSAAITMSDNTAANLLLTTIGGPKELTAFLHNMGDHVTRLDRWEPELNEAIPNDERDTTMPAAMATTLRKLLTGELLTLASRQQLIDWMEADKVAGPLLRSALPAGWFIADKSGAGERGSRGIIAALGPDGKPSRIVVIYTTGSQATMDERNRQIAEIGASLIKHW
Sequence of Genome polyprotein (Q2Q167 whole entry): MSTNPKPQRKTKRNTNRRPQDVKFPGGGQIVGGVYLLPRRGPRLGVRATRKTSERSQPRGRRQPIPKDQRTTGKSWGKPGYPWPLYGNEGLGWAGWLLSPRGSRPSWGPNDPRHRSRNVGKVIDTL
Sequence of Induced myeloid leukemia cell differentiation protein Mcl-1 (Q07820 whole entry): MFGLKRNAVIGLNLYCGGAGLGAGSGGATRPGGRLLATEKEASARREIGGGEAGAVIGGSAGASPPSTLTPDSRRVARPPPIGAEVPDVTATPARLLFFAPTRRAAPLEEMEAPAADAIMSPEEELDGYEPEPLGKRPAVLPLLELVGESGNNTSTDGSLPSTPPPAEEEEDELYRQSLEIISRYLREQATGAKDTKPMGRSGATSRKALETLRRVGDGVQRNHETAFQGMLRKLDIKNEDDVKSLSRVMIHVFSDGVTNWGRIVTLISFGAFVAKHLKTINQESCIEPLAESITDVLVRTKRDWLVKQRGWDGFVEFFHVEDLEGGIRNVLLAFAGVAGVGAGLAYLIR

## CS(=O)(=O)c1sc(C#N)c2c1C(=O)CC(c1ccccc1)C2 (stereo not given)
[1]
  EC50: > 120 µM (not active)
[2]
  EC50: 10.3 µM (active)
[3]
  EC50: 7.83 µM (active)
[4]
  IC50: 4.62 µM (active)
Beta-galactosidase
  EC50: > 31.5 µM (inactive)
[5]
  IC50: 3.24 µM
[6]
  CC50: 4.22 µM (active)
[7]
  CC50: 4.85 µM (active)
[8]
  CC50: 5.26 µM (active)
[9]
  EC50: 17.8 µM (active)
cells
  IC50: 780 nM (active)
CHO
  IC50: 2.74 µM (active)
Beta Lactamase
  IC50: 7.08 µM (active)

## CN(C(=O)COC(=O)c1cc(-c2ccco2)nc2ccccc12)C1CCS(=O)(=O)C1 (stereo not given)
Genome polyprotein
  IC50: > 49.8 µM (not active)
[10]
  IC50: 28.8 µM (active)
[11]
  IC50: 2.15 µM (active)
[12]
  IC50: 1.59 µM (active)
SUMO E1/E2
  IC50: 2.66 µM (active)
[13]
  IC50: 3.26 µM (active)
[14]
  IC50: 4.74 µM (active)
[15]
  IC50: > 66.6 µM (inactive)
[16]
  IC50: 4.99 µM (active)
Albumin
  IC50: > 94.1 µM (inactive)

## CCN1CCN(c2ncc3c(n2)CC(c2cc(OC)c(OC)c(OC)c2)CC3=O)CC1 (stereo not given)
BJ [17]
  EC50: 5.01 µM (active)
BJ [18]
  EC50: 124 µM (active)
J774.A1
  IC50: 419 nM (active)
BJ [19]
  EC50: 21.8 µM (active)
[20]
  EC50: 2.34 µM (active)

## COc1ccc(CC2CC(=O)N(c3ccc(C)cc3)C2=O)cc1 (stereo not given)
[21]
  IC50: > 100 µM (inactive)
[22]
  EC50: > 100 µM (inactive)
